# Reference: patent US12673944B2, “Compounds having inhibitory activity against glucosylceramide synthase or pharmaceutically acceptable salt thereof, processes for preparing the same, and pharmaceutical compositions comprising the same” (YUHAN CORPORATION, priority 2019, dated 2026)
# Like-named read-outs stand apart in the source and are kept apart here.
# Assays:
# [1] = tested on: GM1 production in Jurkat cells; assay: cells; format: cell-based
# [2] = target: T1, glucosylceramide synthase (GCS) (Homo sapiens, UniProt Q16739); assay: GCS enzyme inhibition assay (A549 cell lysate, NBD C6-ceramide, HPLC fluorescence); format: biochemical; conditions: inhibitory activity against GCS, 37° C., 90 minutes
# T1 construct: The obtained supernatant was used; host or cells: A549 cells (lysate supernatant after sonication)
# T1 sequence (Q16739 1-394): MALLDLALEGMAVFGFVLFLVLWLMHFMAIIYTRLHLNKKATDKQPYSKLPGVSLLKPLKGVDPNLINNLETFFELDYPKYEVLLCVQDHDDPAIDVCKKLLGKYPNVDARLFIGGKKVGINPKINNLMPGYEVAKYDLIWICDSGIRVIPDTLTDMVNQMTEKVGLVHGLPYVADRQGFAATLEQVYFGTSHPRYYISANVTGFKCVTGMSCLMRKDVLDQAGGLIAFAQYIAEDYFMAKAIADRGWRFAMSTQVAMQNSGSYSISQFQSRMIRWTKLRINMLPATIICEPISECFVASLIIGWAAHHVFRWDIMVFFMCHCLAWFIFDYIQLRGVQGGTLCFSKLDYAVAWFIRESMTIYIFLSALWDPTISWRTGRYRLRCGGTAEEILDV
# Description: Ibiglustat, known as a GCS inhibitor, was used as a control.
# After the cells attached to the culture dish were washed with phosphate buffered saline (PBS), the cells were scraped off with a cell scraper and then centrifuged (4000 rpm, 3 min, 4° C.) to collect the cells in a 50 ml tube. The cell pellets were suspended in a lysis buffer (50 mM HEPES, pH 7.3, containing 1× the protease/phosphatase inhibitor cocktail), lysed by sonication, and then the lysate was centrifuged (13000 rpm, 10 min, 4° C.). The obtained supernatant was used for the quantitative analysis of proteins. The amount of proteins was measured using the BCA protein assay kit, using bovine serum albumin as a standard.
# Enzymatic reactions were initiated by sequentially adding the following reaction materials to a 96 deep-well plate. Thereafter, the enzymatic reactions were performed at 37° C. for 90 minutes.
# The enzymatic reactions were stopped by adding 100 μl of chloroform/methanol (2:1, v/v). After vortexing for 15 seconds, each mixture was centrifuged (4000 rpm, 10 min, 18° C.). The lower layer (50 μl) was transferred to a new 96 deep-well plate and dried with a reduced concentrator.
# Data analysis was performed by the following equations. % Area(Sample)=Area(GlcCer)/[Area(Cer)+Area(GlcCer)]×100 % GCS activity=[Area(Sample)−Area(ibiglustat)]/[Area(DMSO)−Area(ibiglustat)]×100
SMILES,"IC50 ([1]; Homo sapiens, Jurkat, 72 h) [nM]",IC50 [2] [nM],IC50 [1] [nM]
"O=C(NC1CCOc2cc(-c3ccccc3OC(F)(F)F)ccc21)O[C@@H]1CN2CCC1CC2 (stereo partly drawn) [Example 12, (S)-quinuclidin-3-yl (7-(2-(trifluoromethoxy)phenyl)chroman-4-yl)carbamate]",3.28,4.28,–
"O=C(NC1CCOc2cc(-c3cccc4cnccc34)ccc21)O[C@@H]1CN2CCC1CC2 (stereo partly drawn) [Example 54, (S)-quinuclidin-3-yl (7-(isoquinolin-5-yl)chroman-4-yl)carbamate]",14.1,2.14,–
"CCc1cccc(-c2cc3c(cc2F)C(NC(=O)O[C@@H]2CN4CCC2CC4)C(C)(C)CO3)c1 (stereo partly drawn) [Example 333, (S)-quinuclidin-3-yl (7-(3-ethylphenyl)-6-fluoro-3,3-dimethylchroman-4-yl)carbamate]",0.8,0.45,–
"COCOc1ccccc1-c1ccc2c(c1)OCC(C)(C)C2NC(=O)O[C@@H]1CN2CCC1CC2 (stereo partly drawn) [Example 106, (S)-quinuclidin-3-yl (7-(2-(methoxymethoxy)phenyl)-3,3-dimethylchroman-4-yl)carbamate]",0.22,1.17,–
"CC1(C)COc2cc(-c3ccc(CC#N)cc3)ccc2C1NC(=O)O[C@@H]1CN2CCC1CC2 (stereo partly drawn) [Example 280, (S)-quinuclidin-3-yl (7-(4-(cyanomethyl)phenyl)-3,3-dimethylchroman-4-yl)carbamate]",9.3,0.62,–
"CC(C)c1cccc(-c2ccc3c(c2)OCC(C)(C)C3NC(=O)O[C@@H]2CN3CCC2CC3)c1 (stereo partly drawn) [Example 151, (S)-quinuclidin-3-yl (7-(3-isopropylphenyl)-3,3-dimethylchroman-4-yl)carbamate]",0.31,0.53,–
"CC1(C)COc2cc(/C=C/c3cccc(F)c3)ccc2C1NC(=O)O[C@@H]1CN2CCC1CC2 (stereo partly drawn) [Example 289, (S)-quinuclidin-3-yl (7-((E)-3-fluorostyryl)-3,3-dimethylchroman-4-yl)carbamate]",1.4,0.61,–
"CCc1ccc(-c2cc3c(cc2OC)C(NC(=O)O[C@@H]2CN4CCC2CC4)C(C)(C)CO3)cc1 (stereo partly drawn) [Example 353, (S)-quinuclidin-3-yl (7-(4-ethylphenyl)-6-methoxy-3,3-dimethylchroman-4-yl)carbamate]",2.3,0.33,–
"CC1(C)COc2cc(-c3cccc(OC(F)(F)F)c3)ccc2C1NC(=O)O[C@@H]1CN2CCC1CC2 (stereo partly drawn) [Example 105, (S)-quinuclidin-3-yl (3,3-dimethyl-7-(3-(trifluoromethoxy)phenyl)chroman-4-yl)carbamate]",1.41,1.11,–
"N#Cc1ccccc1-c1ccc2c(c1)OCCC2NC(=O)O[C@@H]1CN2CCC1CC2 (stereo partly drawn) [Example 40, (S)-quinuclidin-3-yl (7-(2-cyanophenyl)chroman-4-yl)carbamate]",19.7,3.78,–
"COc1ncccc1-c1ccc2c(c1)OCC(C)(C)C2NC(=O)O[C@@H]1CN2CCC1CC2 (stereo partly drawn) [Example 245, (S)-quinuclidin-3-yl (7-(2-methoxypyridin-3-yl)-3,3-dimethylchroman-4-yl)carbamate]",4.7,0.95,–
"COc1cc(F)c(-c2ccc3c(c2)OCC(C)(C)C3NC(=O)O[C@@H]2CN3CCC2CC3)cc1F (stereo partly drawn) [Example 123, (S)-quinuclidin-3-yl (7-(2,5-difluoro-4-methoxyphenyl)-3,3-dimethylchroman-4-yl)carbamate]",4.24,0.79,–
"O=C(NC1CCOc2cc(-c3cccc(C(F)(F)F)c3)ccc21)O[C@@H]1CN2CCC1CC2 (stereo partly drawn) [Example 3, (S)-quinuclidin-3-yl (7-(3-(trifluoromethyl)phenyl)chroman-4-yl)carbamate]",2.13,0.7,–
"CC1(C)COc2cc(-c3cccc(S(=O)(=O)N4CCCC4)c3)ccc2C1NC(=O)O[C@@H]1CN2CCC1CC2 (stereo partly drawn) [Example 184, (S)-quinuclidin-3-yl (3,3-dimethyl-7-(3-(pyrrolidin-1-ylsulfonyl)phenyl)chroman-4-yl)carbamate]",4.16,0.91,–
"O=C(NC1CCOc2cc(-c3cc4ccccc4o3)ccc21)O[C@@H]1CN2CCC1CC2 (stereo partly drawn) [Example 44, (S)-quinuclidin-3-yl (7-(benzofuran-2-yl)chroman-4-yl)carbamate]",15.6,9.17,–
"O=C(NC1CCOc2cc(-c3cc(Cl)cc(Cl)c3)ccc21)O[C@@H]1CN2CCC1CC2 (stereo partly drawn) [Example 29, (S)-quinuclidin-3-yl (7-(3,5-dichlorophenyl)chroman-4-yl)carbamate]",12.4,2.28,–
"N#Cc1ccc(-c2ccc3c(c2)C(NC(=O)O[C@@H]2CN4CCC2CC4)CCO3)cc1 (stereo partly drawn) [Example 100, (S)-quinuclidin-3-yl (6-(4-cyanophenyl)chroman-4-yl)carbamate]",289,7.1,–
"CC1(C)COc2cc(-c3cccc4ccncc34)ccc2C1NC(=O)O[C@@H]1CN2CCC1CC2 (stereo partly drawn) [Example 160, (S)-quinuclidin-3-yl (7-(isoquinolin-8-yl)-3,3-dimethylchroman-4-yl)carbamate]",0.54,0.52,–
"COc1cc2c(cc1-c1ccc(OCC(C)C)cc1)OCC(C)(C)C2NC(=O)O[C@@H]1CN2CCC1CC2 (stereo partly drawn) [Example 366, (S)-quinuclidin-3-yl (7-(4-isobutoxyphenyl)-6-methoxy-3,3-dimethylchroman-4-yl)carbamate]",0.7,0.19,–
"CC1(C)COc2cc(-c3cccnc3F)ccc2C1NC(=O)O[C@@H]1CN2CCC1CC2 (stereo partly drawn) [Example 222, (S)-quinuclidin-3-yl (7-(2-fluoropyridin-3-yl)-3,3-dimethylchroman-4-yl)carbamate]",6.59,0.79,–
"O=C(NC1CCOc2cc(-c3ccc4c(c3)OCCO4)ccc21)O[C@@H]1CN2CCC1CC2 (stereo partly drawn) [Example 37, (S)-quinuclidin-3-yl (7-(2,3-dihydrobenzo[b][1,4]dioxin-6-yl)chroman-4-yl)carbamate]",9.47,1.4,–
"COc1ccc(-c2ccc3c(c2)OCC(C)(C)C3NC(=O)O[C@@H]2CN3CCC2CC3)cc1F (stereo partly drawn) [Example 118, (S)-quinuclidin-3-yl (7-(3-fluoro-4-methoxyphenyl)-3,3-dimethylchroman-4-yl)carbamate]",3.63,1.63,–
"COc1ccc(-c2ccc3c(c2)OCC(C)(C)C3NC(=O)O[C@@H]2CN3CCC2CC3)cc1C(F)(F)F (stereo partly drawn) [Example 188, (S)-quinuclidin-3-yl (7-(4-methoxy-3-(trifluoromethyl)phenyl)-3,3-dimethylchroman-4-yl)carbamate]",–,0.75,4.59
"CC1(C)COc2cc(-c3ccc4nonc4c3)ccc2C1NC(=O)O[C@@H]1CN2CCC1CC2 (stereo partly drawn) [Example 220, (S)-quinuclidin-3-yl (7-(benzo[c][1,2,5]oxadiazol-5-yl)-3,3-dimethylchroman-4-yl)carbamate]",2.42,0.8,–
"O=C(NC1CCOc2cc(-c3ccc4nsnc4c3)ccc21)O[C@@H]1CN2CCC1CC2 (stereo partly drawn) [Example 62, (S)-quinuclidin-3-yl (7-(benzo[c][1,2,5]thiadiazol-5-yl)chroman-4-yl)carbamate]",21.2,1.03,–
"CCOc1ccc(-c2cc3c(cc2OC)C(NC(=O)O[C@@H]2CN4CCC2CC4)C(C)(C)CO3)cc1 (stereo partly drawn) [Example 356, (S)-quinuclidin-3-yl (7-(4-ethoxyphenyl)-6-methoxy-3,3-dimethylchroman-4-yl)carbamate]",3.4,0.48,–
"CC1(C)COc2cc(-c3ccc(OCc4ccccc4)cc3)ccc2C1NC(=O)O[C@@H]1CN2CCC1CC2 (stereo partly drawn) [Example 276, (S)-quinuclidin-3-yl (7-(4-(benzyloxy)phenyl)-3,3-dimethylchroman-4-yl)carbamate]",1.3,0.54,–
"CN(C)c1cccc(-c2ccc3c(c2)SCCC3NC(=O)O[C@@H]2CN3CCC2CC3)c1 (stereo partly drawn) [Example 326, (S)-quinuclidin-3-yl (7-(3-(dimethylamino)phenyl)thiochroman-4-yl)carbamate]",10.3,0.64,–
"CC1(C)COc2cc(-c3cccc(OCc4ccccc4)c3)ccc2C1NC(=O)O[C@@H]1CN2CCC1CC2 (stereo partly drawn) [Example 277, (S)-quinuclidin-3-yl (7-(3-(benzyloxy)phenyl)-3,3-dimethylchroman-4-yl)carbamate]",0.9,0.65,–
"COCOc1cccc(-c2ccc3c(c2)OCC(C)(C)C3NC(=O)O[C@@H]2CN3CCC2CC3)c1 (stereo partly drawn) [Example 107, (S)-quinuclidin-3-yl (7-(3-(methoxymethoxy)phenyl)-3,3-dimethylchroman-4-yl)carbamate]",0.1,1.17,–
